Assay results as given in ChEMBL document CHEMBL3885861, “Open TG-GATES”.

Species: Rattus norvegicus
Test: Open TG-GATES - Regimen: Daily Repeat
Assay type: toxicity, organism-based, Sprague-Dawley
Set-up: regimen Daily Repeat, gender Male, age 6 weeks
Conditions: in vivo, po, 0 mg/kg, route gavage, dose level Control; for APTT / Bas / Eos / Fbg / Hb / Ht / Lym / MCH / MCHC / MCV / Mono / Neu / PT / Plat / RBC / Ret / WBC: tissue Blood; for KIDNEY_L / KIDNEY_R / KIDNEY_TOTAL: tissue Kidney; for LIVER: tissue Liver; for A/G / ALP / ALT / AST / BUN / CRE / Ca / Cl / DBIL / GLC / IP / K / LDH / Na / PL / RALB / TBIL / TC / TG / TP / gamma-GTP: tissue Plasma

SMILES: Brc1ccccc1 [BROMOBENZENE]
- TERMINAL_BW (72 h, time 3 day): 210.3 g
- APTT (72 h, time 3 day): 15.5 s
- Bas (72 h, time 3 day): 0%
- Eos (72 h, time 3 day): 1%
- Fbg (72 h, time 3 day): 264.4 mg/dL
- Hb (72 h, time 3 day): 13.1 g/dL
- Ht (72 h, time 3 day): 38.3%
- Lym (72 h, time 3 day): 79.8%
- MCH (72 h, time 3 day): 21.4 pg
- MCHC (72 h, time 3 day): 34.3%
- MCV (72 h, time 3 day): 62.4 fL
- Mono (72 h, time 3 day): 3.2%
- Neu (72 h, time 3 day): 15.6%
- PT (72 h, time 3 day): 12 s
- Plat (72 h, time 3 day): 116.4 x10_4/uL
- RBC (72 h, time 3 day): 613.6 x10_4/ul
- Ret (72 h, time 3 day): 7.8%
- WBC (72 h, time 3 day): 89.2 x10_2/uL
- KIDNEY_L (72 h, time 3 day): 0.9 g
- KIDNEY_R (72 h, time 3 day): 0.8 g
- KIDNEY_TOTAL (72 h, time 3 day): 1.7 g
- LIVER (72 h, time 3 day): 10 g
- A/G (72 h, time 3 day): 0.9
- ALP (72 h, time 3 day): 1625.4 IU/L
- ALT (72 h, time 3 day): 52.2 IU/L
- AST (72 h, time 3 day): 77.8 IU/L
- BUN (72 h, time 3 day): 14.8 mg/dL
- CRE (72 h, time 3 day): 0.2 mg/dL
- Ca (72 h, time 3 day): 10.2 mg/dL
- Cl (72 h, time 3 day): 104.8 meq/L
- DBIL (72 h, time 3 day): 0.012 mg/dL
- GLC (72 h, time 3 day): 187 mg/dL
- IP (72 h, time 3 day): 7.6 mg/dL
- K (72 h, time 3 day): 4 meq/L
- LDH (72 h, time 3 day): 63.6 IU/L
- Na (72 h, time 3 day): 141.8 meq/L
- PL (72 h, time 3 day): 142.6 mg/dL
- RALB (72 h, time 3 day): 2.6 g/dL
- TBIL (72 h, time 3 day): 0.04 mg/dL
- TC (72 h, time 3 day): 79 mg/dL
- TG (72 h, time 3 day): 101 mg/dL
- TP (72 h, time 3 day): 5.7 g/dL
- gamma-GTP (72 h, time 3 day): 1.2 IU/L
- TERMINAL_BW ([…], time 7 day): 242.1 g
- TERMINAL_BW ([…], time 14 day): 295 g
- TERMINAL_BW ([…], time 28 day): 384.4 g
- APTT ([…], time 7 day): 15.7 s
- Bas ([…], time 7 day): 0.2%
- Eos ([…], time 7 day): 1%
- Fbg ([…], time 7 day): 283.4 mg/dL
- Hb ([…], time 7 day): 13.4 g/dL
- Ht ([…], time 7 day): 39%
- Lym ([…], time 7 day): 78.4%
- MCH ([…], time 7 day): 21.4 pg
- MCHC ([…], time 7 day): 34.5%
- MCV ([…], time 7 day): 61.9 fL
- Mono ([…], time 7 day): 2.8%
- Neu ([…], time 7 day): 18%
- PT ([…], time 7 day): 12.3 s
- Plat ([…], time 7 day): 115.5 x10_4/uL
- RBC ([…], time 7 day): 630.4 x10_4/ul
- Ret ([…], time 7 day): 5.8%
- WBC ([…], time 7 day): 112.8 x10_2/uL
- APTT ([…], time 14 day): 15.8 s
- Bas ([…], time 14 day): 0%
- Eos ([…], time 14 day): 0.8%
- Fbg ([…], time 14 day): 320.2 mg/dL
- Hb ([…], time 14 day): 13.8 g/dL
- Ht ([…], time 14 day): 39.9%
- Lym ([…], time 14 day): 77%
- MCH ([…], time 14 day): 20.8 pg
- MCHC ([…], time 14 day): 34.7%
- MCV ([…], time 14 day): 60 fL
- Mono ([…], time 14 day): 2.4%
- Neu ([…], time 14 day): 19%
- PT ([…], time 14 day): 12 s
- Plat ([…], time 14 day): 113.5 x10_4/uL
- RBC ([…], time 14 day): 665.6 x10_4/ul
- Ret ([…], time 14 day): 4.4%
- WBC ([…], time 14 day): 89.1 x10_2/uL
- APTT ([…], time 28 day): 17.6 s
- Bas ([…], time 28 day): 0%
- Eos ([…], time 28 day): 1.6%
- Fbg ([…], time 28 day): 301 mg/dL
- Hb ([…], time 28 day): 14.9 g/dL
- Ht ([…], time 28 day): 42.4%
- Lym ([…], time 28 day): 79.4%
- MCH ([…], time 28 day): 19.4 pg
- MCHC ([…], time 28 day): 35.1%
- MCV ([…], time 28 day): 55.4 fL
- Mono ([…], time 28 day): 2.6%
- Neu ([…], time 28 day): 15.4%
- PT ([…], time 28 day): 12.5 s
- Plat ([…], time 28 day): 103.9 x10_4/uL
- RBC ([…], time 28 day): 765 x10_4/ul
- Ret ([…], time 28 day): 2.4%
- WBC ([…], time 28 day): 110.4 x10_2/uL
- KIDNEY_L ([…], time 7 day): 1 g
- KIDNEY_R ([…], time 7 day): 1 g
- KIDNEY_TOTAL ([…], time 7 day): 2 g
- KIDNEY_L ([…], time 14 day): 1.2 g
- KIDNEY_R ([…], time 14 day): 1.1 g
- KIDNEY_TOTAL ([…], time 14 day): 2.3 g
- KIDNEY_L ([…], time 28 day): 1.3 g
- KIDNEY_R ([…], time 28 day): 1.3 g
- KIDNEY_TOTAL ([…], time 28 day): 2.6 g
- LIVER ([…], time 7 day): 11 g
- LIVER ([…], time 14 day): 12.9 g
- LIVER ([…], time 28 day): 16.6 g
- A/G ([…], time 7 day): 0.8
- ALP ([…], time 7 day): 1737.2 IU/L
- ALT ([…], time 7 day): 51 IU/L
- AST ([…], time 7 day): 72.6 IU/L
- BUN ([…], time 7 day): 14.8 mg/dL
- CRE ([…], time 7 day): 0.2 mg/dL
- Ca ([…], time 7 day): 11 mg/dL
- Cl ([…], time 7 day): 107 meq/L
- DBIL ([…], time 7 day): 0.012 mg/dL
- GLC ([…], time 7 day): 191.2 mg/dL
- IP ([…], time 7 day): 7 mg/dL
- K ([…], time 7 day): 3.9 meq/L
- LDH ([…], time 7 day): 97 IU/L
- Na ([…], time 7 day): 143.8 meq/L
- PL ([…], time 7 day): 145.8 mg/dL
- RALB ([…], time 7 day): 2.7 g/dL
- TBIL ([…], time 7 day): 0.044 mg/dL
- TC ([…], time 7 day): 75.4 mg/dL
- TG ([…], time 7 day): 90.2 mg/dL
- TP ([…], time 7 day): 5.9 g/dL
- gamma-GTP ([…], time 7 day): 1 IU/L
- A/G ([…], time 14 day): 0.8
- ALP ([…], time 14 day): 1619.6 IU/L
- ALT ([…], time 14 day): 39.2 IU/L
- AST ([…], time 14 day): 67.8 IU/L
- BUN ([…], time 14 day): 15.8 mg/dL
- CRE ([…], time 14 day): 0.2 mg/dL
- Ca ([…], time 14 day): 10.8 mg/dL
- Cl ([…], time 14 day): 106.6 meq/L
- DBIL ([…], time 14 day): 0 mg/dL
- GLC ([…], time 14 day): 191.6 mg/dL
- IP ([…], time 14 day): 6.8 mg/dL
- K ([…], time 14 day): 3.9 meq/L
- LDH ([…], time 14 day): 64.2 IU/L
- Na ([…], time 14 day): 143.2 meq/L
- PL ([…], time 14 day): 153 mg/dL
- RALB ([…], time 14 day): 2.7 g/dL
- TBIL ([…], time 14 day): 0.032 mg/dL
- TC ([…], time 14 day): 75.6 mg/dL
- TG ([…], time 14 day): 95 mg/dL
- TP ([…], time 14 day): 5.9 g/dL
- gamma-GTP ([…], time 14 day): 1 IU/L
- A/G ([…], time 28 day): 0.8
- ALP ([…], time 28 day): 1341.6 IU/L
- ALT ([…], time 28 day): 45.8 IU/L
- AST ([…], time 28 day): 64 IU/L
- BUN ([…], time 28 day): 16 mg/dL
- CRE ([…], time 28 day): 0.2 mg/dL
- Ca ([…], time 28 day): 10.7 mg/dL
- Cl ([…], time 28 day): 104 meq/L
- DBIL ([…], time 28 day): 0.018 mg/dL
- GLC ([…], time 28 day): 186.6 mg/dL
- IP ([…], time 28 day): 6 mg/dL
- K ([…], time 28 day): 3.8 meq/L
- LDH ([…], time 28 day): 71.4 IU/L
- Na ([…], time 28 day): 142.2 meq/L
- PL ([…], time 28 day): 157.8 mg/dL
- RALB ([…], time 28 day): 2.9 g/dL
- TBIL ([…], time 28 day): 0.036 mg/dL
- TC ([…], time 28 day): 80.2 mg/dL
- TG ([…], time 28 day): 158.4 mg/dL
- TP ([…], time 28 day): 6.5 g/dL
- gamma-GTP ([…], time 28 day): 1 IU/L
